Values quoted from earlier work, collected in patent US20140018251A1, “Methods for Predicting Response to Anti-Cancer Therapy in Cancer Patients” (Stichting Het Nederlands Kanker Instituut, priority 2010, published 2014).

System: mouse mammary tumors lacking BRCA1

N.N.[Cl][Pt][Cl] [cisplatin]
sensitivity of tumors: extremely sensitive
